For the experiment, the target named is T1, human TRPC6 (Homo sapiens, UniProt Q9Y210).
T1 construct: expressed in transfected cells
T1 sequence (Q9Y210 1-931): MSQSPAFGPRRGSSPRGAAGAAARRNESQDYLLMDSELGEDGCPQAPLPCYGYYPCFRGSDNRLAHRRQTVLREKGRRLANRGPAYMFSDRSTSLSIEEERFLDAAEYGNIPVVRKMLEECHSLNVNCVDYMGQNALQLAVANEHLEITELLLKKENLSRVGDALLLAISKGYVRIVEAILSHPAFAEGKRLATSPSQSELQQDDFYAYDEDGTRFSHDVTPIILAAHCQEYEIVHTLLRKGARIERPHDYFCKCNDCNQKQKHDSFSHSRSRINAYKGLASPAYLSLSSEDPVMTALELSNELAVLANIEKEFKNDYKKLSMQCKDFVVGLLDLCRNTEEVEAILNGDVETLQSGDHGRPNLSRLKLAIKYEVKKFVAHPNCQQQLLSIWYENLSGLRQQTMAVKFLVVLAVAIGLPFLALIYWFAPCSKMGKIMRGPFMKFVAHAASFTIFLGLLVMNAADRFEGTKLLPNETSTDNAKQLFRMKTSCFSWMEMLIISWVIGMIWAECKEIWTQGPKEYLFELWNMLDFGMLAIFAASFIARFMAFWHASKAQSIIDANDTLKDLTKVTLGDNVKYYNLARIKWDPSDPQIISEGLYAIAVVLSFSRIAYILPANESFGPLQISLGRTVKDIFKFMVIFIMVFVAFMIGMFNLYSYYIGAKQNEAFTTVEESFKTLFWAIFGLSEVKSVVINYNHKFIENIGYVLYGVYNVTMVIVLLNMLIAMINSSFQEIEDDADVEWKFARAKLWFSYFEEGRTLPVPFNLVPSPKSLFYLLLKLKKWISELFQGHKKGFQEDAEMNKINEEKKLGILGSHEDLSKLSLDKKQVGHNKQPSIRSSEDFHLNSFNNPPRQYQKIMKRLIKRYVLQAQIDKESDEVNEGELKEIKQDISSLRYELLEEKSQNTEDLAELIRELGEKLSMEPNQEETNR
As to the kind of experiment: TRPC6 calcium flux assay (FLIPR, OAG-stimulated calcium influx). It counts as cell-based. The conditions noted are these: HEK293 cells stably transfected with human TRPC6, read-out: hTRPC6 Potency. The method, boiled down: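 HEK293 cells stably expressing human TRPC6, loaded with calcium dye 90–120 min at RT, then given compound for 25 min before OAG (50 uM final, 0.5% DMSO) in HEPES buffer pH 7.2 with 2 mM CaCl2. Background-subtracted FLIPR peak over 180 s normalized to OAG vs buffer; IC50 from dose plot.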
For orientation: Calcium flux is commonly read through the fluorescence of an indicator in the cells.

Regarding `N#Cc1ccc2nc(N3CC[C@@H](F)[C@H](N)C3)n(Cc3ccc(F)cn3)c2c1` [Example 190, 2-((3R,4R)-3-amino-4-fluoropiperidin-1-yl)-1-((5-fluoropyridin-2-yl)methyl)-1H-benzo[d]imidazole-6-carbonitrile], the IC50 came out at 4.02 nM. Regarding `N#Cc1ccc2c(c1)nc(N1CC[C@@H](F)[C@H](N)C1)n2Cc1ccc(F)cn1` [Example 191, 2-((3R,4R)-3-amino-4-fluoropiperidin-1-yl)-1-((5-fluoropyridin-2-yl)methyl)-1H-benzo[d]imidazole-5-carbonitrile], the IC50 amounted to 140 nM. Under `N[C@@H]1CN(c2nc3ccccc3n2Cc2ncc(Br)cn2)CC[C@H]1F` [Example 192, (3R,4R)-1-(1-((5-bromopyrimidin-2-yl)methyl)-1H-benzo[d]imidazol-2-yl)-4-fluoropiperidin-3-amine] stands 1.72 nM; under `N[C@@H]1CN(c2nc3ccccc3n2Cc2ncc(C(F)(F)F)cn2)CC[C@H]1F` [Example 193, (3R,4R)-4-fluoro-1-(1-((5-(trifluoromethyl)pyrimidin-2-yl)methyl)-1H-benzo[d]imidazol-2-yl)piperidin-3-amine], 48.5 nM; under `COc1cnc(Cn2c(N3CC[C@@H](F)[C@H](N)C3)nc3ccccc32)nc1` [Example 194, (3R,4R)-4-fluoro-1-(1-((5-methoxypyrimidin-2-yl)methyl)-1H-benzo[d]imidazol-2-yl)piperidin-3-amine], 14.2 nM. For the compound `N[C@@H]1CN(c2nc3ccccc3n2Cc2ncc(Cl)cn2)CC[C@H]1F` [Example 195, (3R,4R)-1-(1-((5-chloropyrimidin-2-yl)methyl)-1H-benzo[d]imidazol-2-yl)-4-fluoropiperidin-3-amine], the IC50 was determined as 0.664 nM. Turning to `N#Cc1ccc2nc(N3CC[C@@H](F)[C@H](N)C3)n(Cc3ncc(F)cn3)c2c1` [Example 196, 2-((3R,4R)-3-amino-4-fluoropiperidin-1-yl)-1-((5-fluoropyrimidin-2-yl)methyl)-1H-benzo[d]imidazole-6-carbonitrile], the IC50 was determined as 6.47 nM. Take `N#Cc1ccc2c(c1)nc(N1CC[C@@H](F)[C@H](N)C1)n2Cc1ncc(F)cn1` [Example 197, 2-((3R,4R)-3-amino-4-fluoropiperidin-1-yl)-1-((5-fluoropyrimidin-2-yl)methyl)-1H-benzo[d]imidazole-5-carbonitrile]: the IC50 stood at 256 nM. For the compound `N#Cc1ccc2c(c1)nc(N1CC[C@@H](F)[C@H](N)C1)n2Cc1ncc(Cl)cn1` [Example 198], the IC50 was 71.2 nM.

On to `N#Cc1cnc(Cn2c(N3CCC(F)(F)[C@H](N)C3)nc3ccccc32)cn1` [Example 199], for which the IC50 was 28.1 nM. As for `N#Cc1ccc2nc(N3CC[C@@H](F)[C@H](N)C3)n(Cc3ncc(Br)cn3)c2c1` [Example 200, 2-((3R,4R)-3-amino-4-fluoropiperidin-1-yl)-1-((5-bromopyrimidin-2-yl)methyl)-1H-benzo[d]imidazole-6-carbonitrile], the IC50 was 2.18 nM.

For `N#Cc1ccc2c(c1)nc(N1CC[C@@H](F)[C@H](N)C1)n2Cc1ncc(Br)cn1` [Example 201, 2-((3R,4R)-3-amino-4-fluoropiperidin-1-yl)-1-((5-bromopyrimidin-2-yl)methyl)-1H-benzo[d]imidazole-5-carbonitrile], the IC50 was 43.9 nM.

For `N#Cc1cnc(Cn2c(N3CC[C@@H](F)[C@H](N)C3)nc3ccccc32)cn1` [Example 202, 5-((2-((3R,4R)-3-amino-4-fluoropiperidin-1-yl)-1H-benzo[d]imidazol-1-yl)methyl)pyrazine-2-carbonitrile], the IC50 came to 2.14 nM. For `N#Cc1ccc2nc(N3CC[C@H](F)[C@H](N)C3)n(Cc3ncc(Cl)cn3)c2c1` [Example 203, 2-((3R,4S)-3-amino-4-fluoropiperidin-1-yl)-1-((5-chloropyrimidin-2-yl)methyl)-1H-benzo[d]imidazole-6-carbonitrile], the IC50 came to 598 nM.

The values are drawn from patent publication US11332459B2 (TEIJIN PHARMA LIMITED, priority 2017, dated 2022).
